Results from patent publication US10905691B2, “Use of triazolo(4,5-d)pyrimidine derivatives for prevention and treatment of bacterial infection” (Universite de Liege, priority 2016, dated 2021).

Experiments:
[1] = test system: E. faecalis vancomycin-resistant (VRE) ATCC BAA-2365; experiment: MIC determination (EUCAST, Mueller-Hinton broth); type: cell-based; conditions: Enterococcus faecalis
Experimental: Further experiments were conducted using different strains of E. faecalis, as clinically relevant Gram-positive bacterial strains: E. faecalis vancomycin-resistant (VRE) ATCC BAA-2365, and E. faecalis ATCC 29212 in order to determine the Minimal Inhibitory Concentration (MIC) which is the minimal concentration required to prevent bacterial growth; the Minimal Bactericidal Concentration (MBC) which determines the lowest concentration at which an antimicrobial agent kill a particular microorganism and a Minimum Duration for killing 99.9% bacteria (MDK99.9) which is a tolerance metric according to the EUCAST.
MIC determination: A single colony selected from the different strains of E. faecalis is resuspended and cultured in the appropriate medium overnight (O/N) in aerobic conditions (37° C. with 220 rpm shaking), next day a 1:100 inoculum in Mueller-Hinton broth (MHB) was incubated in aerobic conditions for 3 hr (OD=0.08-0.1) and an inoculum of 1:300 dilution, corresponding to 3×10^5 CFU/ml, was incubated in presence or absence of different concentrations of Triafluocyl in 1% DMSO. […]
The Minimal Inhibitory Concentration (MIC) and the Minimal Bactericidal Concentration (MBC) of Fluometacyl were determined on several gram-positive strains (Table 2) following EUCAST (European Committee on Antimicrobial susceptibility Testing) recommendations. […]

[2] = test system: S. aureus (ATCC 25904) biofilm; experiment: Biofilm formation on polystyrene (crystal violet); type: cell-based, Staphylococcus aureus; conditions: 20 hours
Experimental: (§1) S. aureus (ATCC 25904) was grown overnight in TSB medium, before being diluted 100 fold in fresh TSB, and incubated aerobically at 37° C. until bacteria culture reached an OD600 of 0.6 (corresponding to approximately 1-3×10^8 CFU/ml). Bacteria cultures were then diluted to 1×10^4 CFU/ml in fresh TSB. 800 μl aliquots of diluted bacteria suspensions were distributed in each well of a 24-well plate. Bacteria were allowed to adhere for 4 hours under static conditions at 37° C. After removing media, wells were rinsed 2 times with PBS to eliminate planktonic bacteria and re-filled with TSB supplemented with 0.5% glucose
Triafluocyl or DMSO as vehicle was then added at desired concentration and plates were incubated at 37° C. for 20 hours. After incubation, wells were washed and stained with 0.5% (w/v) crystal violet for 30 minutes, washed again and the dye was solubilized by adding 20% acetic acid (v/v in water) before reading absorbance at 595 nm.
S. aureus biofilms were formed on polystyrene surface in the presence of increasing concentrations of Triafluocyl or DMSO as vehicle. In FIG. 2, Biofilm mass is presented as percentage of values obtained in the presence of DMSO (*P<0.05; **P<0.01; ***P<0.001, Triafluocyl versus DMSO, n=4).
as §1, with “Staphyloccocus” for “S.”, “or Staphyloccocus epidermidis (ATCC 35984) were” for “was”, “TSB. Aliquots of” for “TSB.”, “μl” for “μl aliquots of”, “removing the” for “removing”, “glucose containing Fluometacyl at desired concentration or DMSO alone (Ctrl). […] The dye was solubilized by adding 20% acetic acid (v/v in water) before reading absorbance at 595 nm. […]” for “glucose”

[3] = test system: Escherichia coli (ATCC 8739); experiment: MBC determination with C12(ω7)Kβ12 (OAK); type: cell-based; conditions: ATCC8739, in presence of 5 μg/ml OAK, read-out: Minimal Bactericidal Concentration (MBC)
Experimental: Viable count in the liquid culture is estimated by counting the colony forming units (c.f.u.) on a Luria-Bertani (LB) agar plate—after 24 h incubation at 37° C.—and calculating the c.f.u. per milliliter of the liquid culture (c.f.u./ml).
The Minimal Bactericidal Concentration (MBC) of Triafluocyl in presence of 5 μg/ml OAK against Escherichia coli (ATCC 8739) is equal to 10 μg/ml (FIG. 13B).
The Minimal Bactericidal Concentration (MBC) of Fluometacyl in presence of 5 μg/ml OAK against Escherichia coli (ATCC 8739) is equal to 5 μg/ml (FIG. 14B).

[4] = test system: Escherichia coli (ATCC 8739); experiment: MBC determination with polymyxin B nonapeptide (PMBN); type: cell-based; conditions: ATCC8739, in presence of 40 μg/ml PMBN, read-out: Minimal Bactericidal Concentration (MBC)
Experimental: The MBC represents the lowest concentration of drug required to kill the bacteria in a liquid culture.
The Minimal Bactericidal Concentration (MBC) of Triafluocyl in presence of 40 μg/ml PMBN against Escherichia coli (ATCC 8739) is equal to 5 μg/ml (FIG. 11B).
The Minimal Bactericidal Concentration (MBC) of Fluometacyl in presence of 40 μg/ml PMBN against Escherichia coli (ATCC 8739) is equal to 5 μg/ml (FIG. 12B).

| MIC [1] | Compound | S. aureus biofilm formation ([2]; 38 μM, FIG. 10A) | MBC [3] | MBC [4] | S. aureus biofilm formation ([2]; 10 μg/ml, polystyrene surface) | S. aureus biofilm formation ([2]; all concentrations tested, versus DMSO) |
| --- | --- | --- | --- | --- | --- | --- |
| 38 µM | CCCSc1nc(N[C@@H]2C[C@H]2c2ccc(F)c(F)c2)c2nnn([C@@H]3C[C@H](O)[C@@H](O)[C@H]3O)c2n1 [Fluometacyl, (1S,2R,3S,4R)-4-[7-[[(1R,2S)-2-(3,4-Difluorophenyl)cyclopropyl]amino]-5-(propylthio)-3H-1,2,3-triazolo[4,5-d]pyrimidin-3-yl]-1,2,3-cyclopentanetriol] | could not form any biofilm | 5 µg/mL | 5 µg/mL |  |  |
| 20 µg/mL | CCCSc1nc(N[C@@H]2C[C@H]2c2ccc(F)c(F)c2)c2nnn([C@@H]3C[C@H](OCCO)[C@@H](O)[C@H]3O)c2n1 [Triafluocyl, (1S,2S,3R,5S)-3-[7-[(1R,2S)-2-(3,4-difluorophenyl)cyclopropylamino]-5-(propylthio)-3H-[1,2,3]-triazolo[4,5-d]pyrimidin-3-yl]-5-(2-hydroxyethoxy)-1,2-cyclopentanediol] |  | 10 µg/mL | 5 µg/mL | no biofilm could form | significantly reduces |
